The values that follow come from US20240109865A1, “INDAZOLE COMPOUNDS AS KINASE INHIBITORS” (TYRA BIOSCIENCES, INC., priority 2020, published 2024).

Read-outs that look alike come from different tables or passages of the source.

Assay [1] deals with FGFR3-BAIAP2L1 Ba/F3 cells (Homo sapiens, UniProt P22607). The assay is described as follows: Ba/F3 cell viability assay (CellTiter-Glo 2.0), FGFR3-BAIAP2L1 Ba/F3. Type of assay: cell-based. Particulars: for Ba/F3 FGFR1/FGFR3 Selectivity: FGFR3 > FGFR1 selectivity ratio in Ba/F3 FGFR fusion cell based assays; for IC50: read-out: Ba/F3 Cells FGFR3 (IC50 nM), FGFR3-BAIAP2L1 Ba/F3 cells, 48 hours, Cell Titer Glo 2.0. An outline of the steps:
(§1)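 Viability read as ATP luminescence (CellTiter-Glo 2.0) after 48 h compound exposure, normalized to DMSO-treated cells and fitted with a 4-parameter curve for IC50. Cells: Ba/F3 dependent on FGFR1-BCR or FGFR3-BAIAP2L1 fusion kinase; top dose 30 μM, 10-fold steps, 9 doses in triplicate.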

A further assay concerns the target FGFR1-BCR Ba/F3 cells (Homo sapiens, UniProt P11362). Briefly: Ba/F3 cell viability assay (CellTiter-Glo 2.0), FGFR1-BCR Ba/F3. Particulars: read-out: Ba/F3 Cells FGFR1 (IC50 nM), 48 hours, Cell Titer Glo 2.0. Type of assay: cell-based. An outline of the steps:
as §1

In assay [2] the test system is RT112/84 cells (FGFR3-fusion). The assay is described as follows: RT112/84 cancer cell line cell viability assay (CellTiter-Glo 2.0). It is filed as cell-based. Particulars: Homo sapiens, 72 hours, Cell Titer Glo 2.0. The text has this:
(§2) Experimental Purpose: To detect the change of intracellular ATP by Cell Titer-Glo® and to evaluate the inhibitory effect of the compounds on cancer cell lines by determining the in vitro IC50 value of the compounds.
(§3) Cell Titer-Glo® 2.0 Luminescent cell viability assay reagent was purchased from Promega (Madison, WI). RT112/84 and KG-1 cell lines were purchased from American Type Culture Collection (Manassas, VA). UM-UC-14 cell line was purchased from Sigma (St. Louis, MO). RT112/84, UM-UC-14, and KG-1 cells were cultured in RPMI1640 media supplemented with 10% fetal bovine serum. Cultures were maintained at 37° C. in a humidified atmosphere of 5% C02 and 95% air.
(§4) Cell Viability Assay Procedure: Cells were plated in 96-well clear bottom/white plates (Corning #3903) at 10,000 cells/well in 100 μl of media, incubated overnight. The next day, test compound DMSO stock solutions were made at 10 mM and 2 μM final concentration. Compounds were then added to cells in a 9-dose, 10-fold dilution series starting at 30 μM with an HP 300e Digital Dispenser (each dose was applied in triplicate). DMSO was backfilled to each well up to 301 nL total volume of test compound+DMSO, and a total of 301 nL DMSO was added to a control/no test compound well in triplicate. The cells in cell culture plates were incubated with the compounds at 37° C. and 5% C02 for 72 hours. Then 50 μl of Cell Titer Glo 2.0 reagent was added to each well of the cell culture plates. The contents were covered from light and mixed on an orbital shaker at room temperature for 10 min. Luminescence was recorded by a Synergy H1 Microplate Reader (Biotek, Winooski, VT). Cells were assessed as a percentage of DMSO only treated control cells. Curves were plotted and IC50 values were calculated using the GraphPad Prism 8 program based on a sigmoidal dose-response equation (4 parameter).
In general terms: ATP-based viability assays read luminescence as a measure of living cells.

For assay [3], the system named is KG-1 cells (FGFR1-fusion). The assay is described as follows: KG-1 cancer cell line cell viability assay (CellTiter-Glo 2.0). Type of assay: cell-based. The settings on record: Homo sapiens, 72 hours, Cell Titer Glo 2.0.
Excerpt: as §2, §3, §4

For a further assay, the target named is FGFR1 (Homo sapiens (Human), UniProt P11362). The assay is described as follows: Kinase assay, binding constants (Kd), kinase-tagged T7 phage, qPCR. Summed up: (§5)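 Using T7 phage lysates from BL21-derived E. coli, compounds at 0.9% final DMSO competed for kinase binding to ligand-bearing magnetic beads. After elution, qPCR measured remaining kinase, and Kds were fitted by non-linear least squares with the Hill slope fixed at −1.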
FGFR1, sequence (P11362 22-822): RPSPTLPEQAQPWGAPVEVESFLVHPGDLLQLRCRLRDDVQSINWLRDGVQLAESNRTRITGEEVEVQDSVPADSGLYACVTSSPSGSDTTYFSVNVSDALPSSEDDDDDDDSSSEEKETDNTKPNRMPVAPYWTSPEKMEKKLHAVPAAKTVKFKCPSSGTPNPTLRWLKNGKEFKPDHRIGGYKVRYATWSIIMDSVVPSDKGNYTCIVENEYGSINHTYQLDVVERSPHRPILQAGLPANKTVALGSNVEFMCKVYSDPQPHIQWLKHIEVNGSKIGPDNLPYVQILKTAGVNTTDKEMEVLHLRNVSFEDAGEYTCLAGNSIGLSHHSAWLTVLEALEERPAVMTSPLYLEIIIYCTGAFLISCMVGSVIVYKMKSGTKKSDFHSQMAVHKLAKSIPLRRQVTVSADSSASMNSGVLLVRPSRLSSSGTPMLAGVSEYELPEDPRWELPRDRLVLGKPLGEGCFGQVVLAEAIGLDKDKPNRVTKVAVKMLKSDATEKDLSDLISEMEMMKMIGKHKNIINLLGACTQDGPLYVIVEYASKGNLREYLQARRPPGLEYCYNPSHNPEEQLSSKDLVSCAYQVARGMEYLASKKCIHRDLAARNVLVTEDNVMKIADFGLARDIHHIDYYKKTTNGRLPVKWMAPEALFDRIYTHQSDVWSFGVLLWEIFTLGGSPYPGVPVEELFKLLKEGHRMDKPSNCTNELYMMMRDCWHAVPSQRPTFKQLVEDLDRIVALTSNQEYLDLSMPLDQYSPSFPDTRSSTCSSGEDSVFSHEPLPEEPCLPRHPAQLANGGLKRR
(Quantitative PCR measures a nucleic acid by following its amplification.)

For the next assay, the target named is FGFR2 (Homo sapiens (Human), UniProt P21802). The assay is described as above. An outline of the steps:
as §5

Another assay addresses FGFR3 (Homo sapiens (Human), UniProt P22607). Described as above. An outline of the steps:
as §5

Another assay has as its target FGFR3 (V555M) (Homo sapiens (Human), UniProt P22607, V555M). Described as above. The settings on record: V555M mutant. Summed up:
as §5

Another assay has as its target FGFR4 (Homo sapiens (Human), UniProt P22455). Described as above. An outline of the steps: as §5

One may read the Kd as the concentration at which binding is half-saturated.

FGFR3 (V555M), sequence (P22607 23-806 V555M): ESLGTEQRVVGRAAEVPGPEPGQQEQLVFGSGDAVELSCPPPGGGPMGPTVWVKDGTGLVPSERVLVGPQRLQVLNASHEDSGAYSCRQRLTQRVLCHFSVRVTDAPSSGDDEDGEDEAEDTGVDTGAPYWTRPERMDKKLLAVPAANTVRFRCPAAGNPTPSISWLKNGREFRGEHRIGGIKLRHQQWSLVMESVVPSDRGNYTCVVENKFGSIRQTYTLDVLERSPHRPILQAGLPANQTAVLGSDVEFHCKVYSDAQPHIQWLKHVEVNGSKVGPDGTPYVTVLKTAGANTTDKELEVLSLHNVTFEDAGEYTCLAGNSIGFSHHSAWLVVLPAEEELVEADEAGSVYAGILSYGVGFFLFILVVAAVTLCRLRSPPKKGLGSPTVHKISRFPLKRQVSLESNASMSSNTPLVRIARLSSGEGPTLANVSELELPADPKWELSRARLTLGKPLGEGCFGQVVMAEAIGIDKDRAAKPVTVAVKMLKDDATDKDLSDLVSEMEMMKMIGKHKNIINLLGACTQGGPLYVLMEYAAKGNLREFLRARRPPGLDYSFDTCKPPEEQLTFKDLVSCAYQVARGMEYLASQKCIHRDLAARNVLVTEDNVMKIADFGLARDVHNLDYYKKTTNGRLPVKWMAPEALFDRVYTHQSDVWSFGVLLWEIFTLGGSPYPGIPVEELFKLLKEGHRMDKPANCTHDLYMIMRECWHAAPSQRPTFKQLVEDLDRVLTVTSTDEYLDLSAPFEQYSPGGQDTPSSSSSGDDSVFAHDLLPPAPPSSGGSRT
FGFR1-BCR Ba/F3 cells, sequence (P11362 22-822 limits assumed, change not shown): as the sequence (P11362 22-822) above
FGFR2, sequence (P21802 22-821): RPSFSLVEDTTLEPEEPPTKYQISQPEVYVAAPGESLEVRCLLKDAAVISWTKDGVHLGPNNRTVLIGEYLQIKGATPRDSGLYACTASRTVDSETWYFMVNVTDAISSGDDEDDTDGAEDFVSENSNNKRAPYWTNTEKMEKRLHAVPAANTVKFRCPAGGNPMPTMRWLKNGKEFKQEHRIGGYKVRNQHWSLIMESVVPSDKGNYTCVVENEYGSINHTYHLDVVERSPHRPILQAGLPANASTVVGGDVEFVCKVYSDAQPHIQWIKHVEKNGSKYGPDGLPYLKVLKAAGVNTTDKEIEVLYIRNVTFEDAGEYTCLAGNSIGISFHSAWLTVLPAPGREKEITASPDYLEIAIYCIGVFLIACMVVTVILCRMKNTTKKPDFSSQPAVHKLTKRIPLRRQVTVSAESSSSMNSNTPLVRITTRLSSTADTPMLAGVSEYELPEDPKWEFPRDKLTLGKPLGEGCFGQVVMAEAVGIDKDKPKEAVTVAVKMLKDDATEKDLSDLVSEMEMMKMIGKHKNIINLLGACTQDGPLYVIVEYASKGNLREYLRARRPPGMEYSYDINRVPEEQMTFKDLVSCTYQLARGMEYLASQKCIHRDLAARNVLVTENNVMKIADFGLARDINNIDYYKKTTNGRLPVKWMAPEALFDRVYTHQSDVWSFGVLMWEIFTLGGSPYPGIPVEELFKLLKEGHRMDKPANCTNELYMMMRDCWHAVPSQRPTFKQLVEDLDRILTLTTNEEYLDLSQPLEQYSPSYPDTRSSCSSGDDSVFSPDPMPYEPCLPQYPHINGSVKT
FGFR4, sequence (P22455 22-802): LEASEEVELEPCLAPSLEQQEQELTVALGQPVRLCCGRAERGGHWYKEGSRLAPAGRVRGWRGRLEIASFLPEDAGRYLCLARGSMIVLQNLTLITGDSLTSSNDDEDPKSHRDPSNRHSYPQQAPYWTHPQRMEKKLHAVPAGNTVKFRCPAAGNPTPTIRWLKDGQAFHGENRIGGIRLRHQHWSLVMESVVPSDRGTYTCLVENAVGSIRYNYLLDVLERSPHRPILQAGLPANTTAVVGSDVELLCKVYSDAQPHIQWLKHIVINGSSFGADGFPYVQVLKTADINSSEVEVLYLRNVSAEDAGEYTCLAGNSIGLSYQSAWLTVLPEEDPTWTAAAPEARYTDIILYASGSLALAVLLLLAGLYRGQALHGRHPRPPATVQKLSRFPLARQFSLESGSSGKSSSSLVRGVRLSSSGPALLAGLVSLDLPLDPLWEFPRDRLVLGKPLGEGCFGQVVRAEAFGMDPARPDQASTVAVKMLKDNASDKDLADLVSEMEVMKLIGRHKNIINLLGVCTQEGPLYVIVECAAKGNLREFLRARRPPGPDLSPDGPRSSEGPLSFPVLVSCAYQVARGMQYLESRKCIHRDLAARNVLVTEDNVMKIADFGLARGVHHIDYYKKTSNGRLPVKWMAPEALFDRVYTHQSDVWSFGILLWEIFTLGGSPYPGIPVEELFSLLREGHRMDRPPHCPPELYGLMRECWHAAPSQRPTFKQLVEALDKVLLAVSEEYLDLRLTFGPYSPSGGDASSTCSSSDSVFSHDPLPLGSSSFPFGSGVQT
FGFR3-BAIAP2L1 Ba/F3 cells, sequence (P22607 23-806 limits assumed, change not shown): as the sequence (P22607 23-806 V555M) above, with M533V counted along it
FGFR3, sequence (P22607 23-806): as the sequence (P22607 23-806 V555M) above, with M533V counted along it

Turning to `C[C@@H](Oc1ccc2[nH]nc(-c3cnc(N4CCC5(CC4)CCS(=O)(=O)C5)c(F)c3)c2c1)c1c(Cl)cncc1Cl` [Example 77, 8-[5-[5-[(1R)-1-(3,5-dichloro-4-pyridyl)ethoxy]-1H-indazol-3-yl]-3-fluoro-2-pyridyl]-2λ^6-thia-8-azaspiro[4.5]decane 2,2-dioxide], the “Ba/F3 FGFR1/FGFR3 Selectivity” value in assay [1] came out at 14. Besides, the IC50 in assay [1] was in the range of 1 to 20 nM; on FGFR1-BCR Ba/F3 cells it was 100 to 300 nM; in assay [2], 1 to 20 nM; in assay [3], 100 to 300 nM. Also, the Kd fell in the range of 1 to 20 nM on FGFR1; 20 to 100 nM on FGFR2; 1 to 20 nM at FGFR3; 1 to 20 nM at FGFR3 (V555M); 1 to 20 nM on FGFR4.
Turning to `C[C@@H](Oc1ccc2[nH]nc(-c3cnn(C4CCN(C5COC5)CC4)c3)c2c1)c1c(Cl)cncc1Cl` [Example 87, 5-[(1R)-1-(3,5-dichloro-4-pyridyl)ethoxy]-3-[1-[1-(oxetan-3-yl)-4-piperidyl]pyrazol-4-yl]-1H-indazole], the “Ba/F3 FGFR1/FGFR3 Selectivity” value in assay [1] was 17. The IC50 in assay [1] lay within 1 to 20 nM; at FGFR1-BCR Ba/F3 cells, 20 to 100 nM; in assay [2] it was 1 to 20 nM; in assay [3] it was 20 to 100 nM. Moreover, the Kd fell in the range of 1 to 20 nM on FGFR1; 1 to 20 nM on FGFR2; 1 to 20 nM at FGFR3; 1 to 20 nM on FGFR3 (V555M); 20 to 100 nM at FGFR4.
For `C[C@@H](Oc1ccc2[nH]nc(-c3cnn([C@H]4CCNC4)c3)c2c1)c1c(Cl)cncc1Cl` [Example 88, 5-[(1R)-1-(3,5-dichloro-4-pyridyl)ethoxy]-3-[1-[(3S)-pyrrolidin-3-yl]pyrazol-4-yl]-1H-indazole], the “Ba/F3 FGFR1/FGFR3 Selectivity” value in assay [1] came to 20. In addition, the IC50 in assay [1] was in the range of 1 to 20 nM; on FGFR1-BCR Ba/F3 cells, 100 to 300 nM; in assay [2] it was 20 to 100 nM; in assay [3], 100 to 300 nM. In addition, the Kd lay within 1 to 20 nM on FGFR1; 1 to 20 nM on FGFR2; 1 to 20 nM on FGFR3; 1 to 20 nM on FGFR3 (V555M); 20 to 100 nM at FGFR4.
For the compound `Cc1ncc(Cl)c([C@@H](C)Oc2ccc3[nH]nc(-c4cnn(C5CCN(C(C)C)CC5)c4)c3c2)c1Cl` [Example 93, 5-[(1R)-1-(3,5-dichloro-2-methyl-4-pyridyl)ethoxy]-3-[1-(1-isopropyl-4-piperidyl)pyrazol-4-yl]-1H-indazole], the “Ba/F3 FGFR1/FGFR3 Selectivity” value in assay [1] worked out at 11. For the same compound, the IC50 in assay [1] fell in the range of 20 to 100 nM; at FGFR1-BCR Ba/F3 cells, 100 to 300 nM; in assay [2], 1 to 20 nM; in assay [3], 100 to 300 nM. Also, the Kd fell in the range of 1 to 20 nM on FGFR1; 1 to 20 nM on FGFR2; 1 to 20 nM at FGFR3; 1 to 20 nM at FGFR3 (V555M); 20 to 100 nM on FGFR4.
`Cc1ncc(Cl)c([C@@H](C)Oc2ccc3[nH]nc(-c4cnn(C5CCN(C6COC6)CC5)c4)c3c2)c1Cl` [Example 94, 5-[(1R)-1-(3,5-dichloro-2-methyl-4-pyridyl)ethoxy]-3-[1-[1-(oxetan-3-yl)-4-piperidyl]pyrazol-4-yl]-1H-indazole]: the “Ba/F3 FGFR1/FGFR3 Selectivity” value in [1] was determined as 11. In addition, the IC50 in assay [1] (given as a number) is 15 nM; on FGFR1-BCR Ba/F3 cells, 100 to 300 nM; in assay [2], 1 to 20 nM; in assay [3] it was 100 to 300 nM. In addition, the Kd is 20 to 100 nM at FGFR1; 1 to 20 nM at FGFR2; 1 to 20 nM on FGFR3; 1 to 20 nM at FGFR3 (V555M); 20 to 100 nM at FGFR4.
`Cc1ncc(Cl)c([C@@H](C)Oc2ccc3[nH]nc(-c4cnn(C5CCN(C6CCC6)CC5)c4)c3c2)c1Cl` [Example 95, 3-[1-(1-cyclobutyl-4-piperidyl)pyrazol-4-yl]-5-[(1R)-1-(3,5-dichloro-2-methyl-4-pyridyl)ethoxy]-1H-indazole]: the “Ba/F3 FGFR1/FGFR3 Selectivity” value in assay [1] is recorded as 14. Besides, the IC50 in [1] is 20 to 100 nM; on FGFR1-BCR Ba/F3 cells it was more than 300 nM; in assay [2] it was 20 to 100 nM; in assay [3], 100 to 300 nM. The Kd on FGFR1 was 1 to 20 nM; on FGFR2 it was 1 to 20 nM; at FGFR3, 1 to 20 nM; on FGFR3 (V555M), 1 to 20 nM; on FGFR4, 20 to 100 nM.
As to `C[C@@H](Oc1ccc2[nH]nc(-c3ccc(N4CC5(CCN5C)C4)nc3)c2c1)c1c(Cl)cncc1Cl` [Example 96, 5-[(1R)-1-(3,5-dichloro-4-pyridyl)ethoxy]-3-[6-(1-methyl-1,6-diazaspiro[3.3]heptan-6-yl)-3-pyridyl]-1H-indazole], in assay [1], the “Ba/F3 FGFR1/FGFR3 Selectivity” value is 13. Further, the IC50 in [1] lay in the range of 1 to 20 nM; on FGFR1-BCR Ba/F3 cells, 20 to 100 nM; in assay [2], 1 to 20 nM; in assay [3], 20 to 100 nM. For the same compound, the Kd on FGFR1, at FGFR2, at FGFR3, at FGFR3 (V555M) and on FGFR4 was 1 to 20 nM in each case.
Consider `C[C@@H](Oc1ccc2[nH]nc(-c3ccc(N4CCC5(CC4)CN(C)CC(=O)N5)nc3)c2c1)c1c(Cl)cncc1Cl` [Example 97, 9-[5-[5-[(1R)-1-(3,5-dichloro-4-pyridyl)ethoxy]-1H-indazol-3-yl]-2-pyridyl]-4-methyl-1,4,9-triazaspiro[5.5]undecan-2-one], for which the “Ba/F3 FGFR1/FGFR3 Selectivity” value in assay [1] is 15. Besides, the IC50 in [1] lay in the range of 1 to 20 nM; at FGFR1-BCR Ba/F3 cells, 20 to 100 nM; in assay [2], 1 to 20 nM; in [3] it was 20 to 100 nM. Further, the Kd on FGFR1, at FGFR2, on FGFR3, at FGFR3 (V555M) and at FGFR4 was 1 to 20 nM throughout.
Turning to `C[C@@H](Oc1ccc2[nH]nc(-c3ccc(N4CCC5(CC4)CN(C)CC(=O)N5C)nc3)c2c1)c1c(Cl)cncc1Cl` [Example 98, 9-[5-[5-[(1R)-1-(3,5-dichloro-4-pyridyl)ethoxy]-1H-indazol-3-yl]-2-pyridyl]-1,4-dimethyl-1,4,9-triazaspiro[5.5]undecan-2-one], the “Ba/F3 FGFR1/FGFR3 Selectivity” value in assay [1] worked out at 24. Moreover, the IC50 in assay [1] was 1 to 20 nM; on FGFR1-BCR Ba/F3 cells it was 20 to 100 nM; in assay [2], 1 to 20 nM; in assay [3], 20 to 100 nM. Further, the equilibrium dissociation constant (Kd) at FGFR1, on FGFR2, at FGFR3, at FGFR3 (V555M) and at FGFR4 was 1 to 20 nM in each case.
For the compound `C[C@@H](Oc1ccc2[nH]nc(-c3cnn(C4CCOCC4)c3)c2c1)c1c(Cl)cncc1Cl` [Example 106, 5-[(1R)-1-(3,5-dichloro-4-pyridyl)ethoxy]-3-(1-tetrahydropyran-4-ylpyrazol-4-yl)-1H-indazole], in [1], the “Ba/F3 FGFR1/FGFR3 Selectivity” value is 11. Also, the IC50 in assay [1] fell in the range of 1 to 20 nM; on FGFR1-BCR Ba/F3 cells it was 100 to 300 nM; in [2], 1 to 20 nM; in assay [3] it was 100 to 300 nM. The equilibrium dissociation constant (Kd) at FGFR1, at FGFR2, at FGFR3, on FGFR3 (V555M) and at FGFR4 was 1 to 20 nM in each case.
